For data set [1], the system named is L6. As to the kind of experiment: Cytotoxicity against rat L6 cells after 72 hrs by Alamar blue assay. The data set is classed as cell-based. To be noted: L6, 72 h.
Data set [2] has as its system Trypanosoma brucei rhodesiense. As to the kind of experiment: Antiparasitic activity against bloodstream form of Trypanosoma brucei rhodesiense STIB 900 […] after 72 hrs by Alamar blue assay. In kind it is functional, organism-based. The conditions noted are these: STIB 900, 72 h.
The test system of data set [3] is Leishmania donovani. In words: Antiparasitic activity against amastigotes of Leishmania donovani MHOM/ET/67/L82 […] after 72 hrs by Alamar blue assay. The data set is classed as functional, organism-based. The conditions noted are these: MHOM/ET/67/L82, 72 h.
Data set [4] relates to Trypanosoma cruzi. In words: Antiparasitic activity against trypomastigotes of Trypanosoma cruzi Tulahuen C2C4 expressing LacZ gene infected in rat L6 cells after 96 hrs. In kind it is functional, organism-based. The conditions noted are these: Tulahuen C2C4, L6, 96 h.
Data set [5] concerns Plasmodium falciparum. As to the kind of experiment: Antiparasitic activity against Plasmodium falciparum K1 […] assessed as inhibition of parasite growth preincubated for 48 hrs before [3H]hypoxanthine addition measured after 24 hrs by [3H]hypoxanthine incorporation assay. The data set is classed as functional, organism-based.
Data set [6] in a line: Selectivity index, ratio of IC50 for rat L6 cells to IC50 for Plasmodium falciparum K1. In kind it is toxicity, cell-based. To be noted: read-out: Ratio IC50.
The nature of data set [7]: Selectivity index, ratio of IC50 for rat L6 cells to IC50 for bloodstream form of Trypanosoma brucei rhodesiense STIB 900. The data set is classed as toxicity, cell-based. The conditions noted are these: read-out: Ratio IC50.
A short description of data set [8]: Selectivity index, ratio of IC50 for rat L6 cells to IC50 for Leishmania donovani MHOM/ET/67/L82 amastigotes. In kind it is toxicity, cell-based. To be noted: read-out: Ratio IC50.
A short description of data set [9]: Selectivity index, ratio of IC50 for rat L6 cells to IC50 for Trypanosoma cruzi Tulahuen C2C4 trypomastigotes. The data set is classed as toxicity, cell-based. The conditions noted are these: read-out: Ratio IC50.

Some results are limits rather than exact numbers.

For `CC(=O)OC[C@H]1O[C@@H](N2C(=O)/C(=C3/C(=O)Nc4ccccc43)c3ccccc32)[C@H](OC(C)=O)[C@@H](OC(C)=O)[C@@H]1OC(C)=O`, the IC50 was 4.53 µM in data set [1]; 1.24 µM in [2]; 1.93 µM in data set [3]; 11.2 µM in data set [4]; more than 8 µM in [5].
On to `CCCC(=O)c1ccc2c(c1)/C(=C1\C(=O)N([C@@H]3O[C@H](COC(C)=O)[C@@H](OC(C)=O)[C@H](OC(C)=O)[C@H]3OC(C)=O)c3ccc(Br)cc31)C(=O)N2`, for which the figures for the selectivity ratio in [6], in data set [7] and in [8] were 39.9, 194 and 27.5, respectively. Besides, the half-maximal inhibitory concentration (IC50) in [1] is 99 µM; in [2], 0.51 µM; in data set [3], 3.6 µM; in data set [4], more than 120 µM; in [5], 2.48 µM.
For `CC(=O)OC[C@H]1O[C@@H](N2C(=O)/C(=C3/C(=O)Nc4ncccc43)c3cc(Br)ccc32)[C@H](OC(C)=O)[C@@H](OC(C)=O)[C@@H]1OC(C)=O`, the IC50 in data set [1] was 10 µM; in data set [2], 0.88 µM; in data set [3], 0.84 µM; in [4] it was 19.3 µM; in [5], more than 7 µM.
Consider `CC(=O)OC[C@H]1O[C@@H](N2C(=O)/C(=C3/C(=O)Nc4ccc(OC(F)(F)F)cc43)c3ccccc32)[C@H](OC(C)=O)[C@@H](OC(C)=O)[C@@H]1OC(C)=O`, for which the selectivity ratio in data set [7] was determined as 206. For the same molecule, the IC50 in data set [1] is 124 µM; in data set [2], 0.6 µM; in [3], 11.1 µM; in data set [4], more than 130 µM; in data set [5], more than 7 µM.
In data set [4], `O=C(Cn1ccnc1[N+](=O)[O-])NCc1ccccc1` [BENZNIDAZOLE] showed an IC50 of 2.55 µM. Moreover, the selectivity ratio in data set [9] is more than 135.
As to `CCN(CC)CCCC(C)Nc1ccnc2cc(Cl)ccc12` (stereo unspecified) [CHLOROQUINE], the selectivity ratio in [6] was found to be 327.
On to `Nc1nc(N)nc(Nc2ccc([As]3SCC(CO)S3)cc2)n1` (stereo unspecified) [MELARSOPROL], for which, in data set [7], the selectivity ratio came to 193. In [2], this molecule gave an IC50 of 0.013 µM.
On to `CCCCCCCCCCCCCCCCOP(=O)([O-])OCC[N+](C)(C)C` [MILTEFOSINE], for which half-maximal inhibition in data set [3] (IC50) was put at 0.37 µM. For the same molecule, in data set [8], the selectivity ratio worked out at 265.

The record behind these values is ChEMBL document CHEMBL1909597, “Biological evaluation of glycosyl-isoindigo derivatives against the pathogenic agents of tropical diseases (malaria, Chagas disease, leishmaniasis and human African trypanosomiasis)” (Bioorg Med Chem Lett, 2011).
